Active and inactive are the calls of the source.
Experiments:
[1] = A Cell Based Secondary Assay To Explore Cytotoxicity of Compounds that Sensitize Mycobacterium Tuberculosis to Beta-Lactam Antibiotics.; type: functional
BJ [2] = test: BJ-TERT-LT-ST fibroblast viability loss – cell-based, RAS-independent, luminescence, dose response (AID 1935); type: functional; settings: Homo sapiens;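 also: BJ fibroblasts immortalized with TERT plus LT and ST oncogenes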
Paired box protein Pax-8 = Paired box protein Pax-8 (Homo sapiens, UniProt Q06710); test: PAX8 transcriptional activity inhibition in RMG-I – RMG-I cells, luciferase, cherry-pick, dose response (AID 687027); type: functional, cell-based;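 also: luciferase reporter driven by Pax8 target thyroperoxidase promoter measured by SteadyGlo luminescence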
[3] = DRD fibroblast viability loss – cell-based, non-viral oncogenic, luminescence, dose response (AID 1934); type: functional; settings: Homo sapiens
[4] = reduction of Shn3 3'UTR-driven luciferase in osteoblasts – cell-based, Clone20 osteoblasts, firefly luciferase, cherry-picked, dose response (AID 624132); type: functional;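 also: firefly luciferase luminescence from reporter carrying the Shn3 3'UTR in osteoblasts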
cells [5] = test: cells
Jurkat = test: blockers of NF-kB activation in T cells – Jurkat, luciferase reporter, luminescence, B- and T-cell, dose response (AID 489004); type: functional, cell-based; settings: Homo sapiens;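 also: NF-kB luciferase reporter Jurkat cells stimulated with PMA plus ionomycin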
[6] = luciferase reporter signal suppression in cells – H4 neuroglioma cells, luminescence, dose response (AID 1990); type: functional, cell-based
[7] = alpha-synuclein stem-loop translation blockers – luminescence, H4 neuroglioblastoma cells, dose confirmation, confirmation (AID 2454); type: functional, cell-based;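 also: H4 neuroglioblastoma cells carrying an alpha-synuclein 5'UTR luciferase reporter; potency for inhibition of the luciferase signal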
BJ [8] = test: BJ-TERT fibroblast viability loss – cell-based, RAS-independent, luminescence, dose response (AID 1933); type: functional; settings: Homo sapiens
BJ [9] = test: cells; type: functional, cell-based; settings: Homo sapiens
[10] = HEK-293T viability loss, compound-treated – cell-based, uHTS hits, cytotoxicity control for B/T-cell NF-kB inhibitor project, dose response (AID 489019); type: functional;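 also: IC50 reflects cytotoxicity as loss of cell viability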
[11] = luciferase reporter signal reduction – luminescence, H4-C neuroglioblastoma cells, dose response (AID 2458); type: functional, cell-based;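 also: H4 neuroglioblastoma cells stably carrying a luciferase reporter gene fusion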
cells [12] = type: functional, cell-based
[13] = general cell-killing toxicity readout – plate reader, dry powder samples, cytotoxicity control for PAX8 inhibitor project, dose response (AID 743021); type: functional, cell-based
[14] = Luminescence Cell-Based Dose Confirmation HTS to Identify Inhibitors of Platelet Dense Granule Release. [Related pubchem assays: 1663 (Primary HTS), 1678 (Summary of Project)]; type: functional
[15] = biological target: Luciferin 4-monooxygenase (Photinus pyralis, UniProt P08659); test: inhibition of purified Photinus pyralis luciferase – biochemical, luminescence, dose response (AID 1891)
[16] = loss of viability in HepG2 cells – cell-based, CellTiter-Glo, cherry-picked, cytotoxicity control for Shn3 inhibitor project, dose response (AID 624134); type: functional
[17] = alpha-synuclein stem-loop luciferase translation blockers – H4 neuroglioma cells, luminescence, confirmation (AID 1988); type: functional, cell-based
[18] = Luminescence Cell-Based Dose Response HTS to Identify Inhibitors of 5'UTR Stem-Loop Driven Prion Protein mRNA Translation in H4 Neuroglioblastoma Cells. [Related pubchem assays: 1827 (Project Summary), 1813 (Primary HTS)]; type: functional
[19] = biological target: T1, Oxysterols receptor LXR-beta (Homo sapiens, UniProt P55055); type: functional, cell-based;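 also: Cell-based luminescence dose-response assay of agonist activity at LXR, run as a confirmatory counterscreen to a daf-12 agonist screen; HEK293 cells with Gal4-LXR fusion and GAL4-driven luciferase reporter; agonist potency from rising luciferase signal of a Gal4-LXR reporter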
T1 sequence (P55055 whole entry): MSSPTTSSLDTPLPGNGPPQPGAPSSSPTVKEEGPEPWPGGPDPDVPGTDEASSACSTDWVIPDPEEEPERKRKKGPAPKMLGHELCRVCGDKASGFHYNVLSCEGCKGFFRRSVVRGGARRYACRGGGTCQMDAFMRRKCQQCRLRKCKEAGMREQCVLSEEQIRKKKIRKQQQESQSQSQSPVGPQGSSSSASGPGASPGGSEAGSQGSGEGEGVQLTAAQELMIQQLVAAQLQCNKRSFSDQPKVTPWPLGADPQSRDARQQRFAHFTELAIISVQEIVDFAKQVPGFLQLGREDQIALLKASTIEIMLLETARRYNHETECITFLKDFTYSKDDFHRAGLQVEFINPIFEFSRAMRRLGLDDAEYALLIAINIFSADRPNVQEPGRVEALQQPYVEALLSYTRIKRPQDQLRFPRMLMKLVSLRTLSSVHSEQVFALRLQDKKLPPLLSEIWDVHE

cells [20] = type: functional, cell-based; remark: listed apart in the source
[21] = M. tuberculosis H37Rv growth inhibitors, H37Rv strain (AID 1626); type: functional
cells [22] = type: functional, cell-based; remark: listed apart in the source
[23] = biological target: T2, Mannose-6-phosphate isomerase (Homo sapiens, UniProt P34949); test: MPI enzyme activity inhibition – biochemical, fluorescence intensity, coupled assay, primary screen (AID 1209)
T2 sequence (P34949 whole entry): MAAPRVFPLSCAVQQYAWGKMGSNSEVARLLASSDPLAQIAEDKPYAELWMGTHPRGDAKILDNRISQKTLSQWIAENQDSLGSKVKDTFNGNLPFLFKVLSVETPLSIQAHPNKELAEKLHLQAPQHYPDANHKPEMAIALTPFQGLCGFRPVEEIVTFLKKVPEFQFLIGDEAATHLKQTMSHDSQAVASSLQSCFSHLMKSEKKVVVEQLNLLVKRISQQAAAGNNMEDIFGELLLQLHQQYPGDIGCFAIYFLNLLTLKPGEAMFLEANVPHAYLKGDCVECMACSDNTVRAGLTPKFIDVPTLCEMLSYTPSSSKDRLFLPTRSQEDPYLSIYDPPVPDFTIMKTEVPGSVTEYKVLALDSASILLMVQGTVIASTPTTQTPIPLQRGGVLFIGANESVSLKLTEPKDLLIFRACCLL

[24] = biological target: T2, Mannose-6-phosphate isomerase; test: MPI inhibition at elevated mannose 6-phosphate – biochemical, fluorescence intensity, high mannose 6-phosphate, primary screen (AID 1220)
[25] = biological target: Voltage-gated inwardly rectifying potassium channel KCNH2 (Homo sapiens, UniProt Q12809); test: concentration-dependent hERG rescue from blockers – cell-based, thallium flux, dose response (AID 2121); type: ADME
Cytochrome P450 2C9 = Cytochrome P450 2C9 (Homo sapiens, UniProt P11712)
[26] = Luminescence Cell-Based Dose Retest to Confirm Inhibitors of Cancer Stem Cells. [Related pubchem assays (depositor defined):AID2717, AID2721]; type: functional; settings: Homo sapiens
Cytochrome P450 2C19 = Cytochrome P450 2C19 (Homo sapiens, UniProt P33261); test: Cytochrome panel assay with activity outcomes. Panel member name: p450-cyp2c19 Compounds with AC50 equal or less than 10 uM are considered active; type: functional; settings: read-out: AC50
Cytochrome P450 1A2 = biological target: T3, Cytochrome P450 1A2 (Homo sapiens, UniProt P05177);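 also: PubChem cytochrome P450 panel assay, CYP1A2 panel member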
T3 sequence (P05177 whole entry): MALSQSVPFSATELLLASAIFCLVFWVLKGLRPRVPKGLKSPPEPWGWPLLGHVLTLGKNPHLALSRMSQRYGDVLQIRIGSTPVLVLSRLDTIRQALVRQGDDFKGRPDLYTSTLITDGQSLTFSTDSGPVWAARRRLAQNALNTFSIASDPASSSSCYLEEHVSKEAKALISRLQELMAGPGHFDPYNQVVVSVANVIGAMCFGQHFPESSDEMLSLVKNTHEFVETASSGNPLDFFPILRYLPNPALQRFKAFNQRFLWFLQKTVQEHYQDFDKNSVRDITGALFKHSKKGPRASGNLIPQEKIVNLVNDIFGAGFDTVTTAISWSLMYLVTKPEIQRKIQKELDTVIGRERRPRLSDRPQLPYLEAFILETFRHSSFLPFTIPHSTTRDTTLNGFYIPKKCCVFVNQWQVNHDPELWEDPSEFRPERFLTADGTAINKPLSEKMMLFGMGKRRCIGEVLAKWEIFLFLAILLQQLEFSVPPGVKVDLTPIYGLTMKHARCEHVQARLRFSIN

[27] = HEK-293T viability loss after treatment – luminescence, T-cell screen hits, cytotoxicity control for TCR NF-kB inhibitor project, dose response (AID 489026); type: functional, cell-based;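 also: cells exposed to compound about 14 hours before the viability readout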
[28] = biological target: T4, Heat shock factor protein 1 (Mus musculus, UniProt P38532); test: decrease of HSF1-responsive luciferase luminescence – cell-based, NIH3T3, dose retest, confirmation (AID 2382); type: functional;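 also: NIH3T3 fibroblasts with HSF1-driven luciferase reporter stressed by proteasome inhibitor MG132; luminescence from HSF1-driven luciferase expression after 8 hours of MG132 stress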
T4 sequence (P38532 whole entry): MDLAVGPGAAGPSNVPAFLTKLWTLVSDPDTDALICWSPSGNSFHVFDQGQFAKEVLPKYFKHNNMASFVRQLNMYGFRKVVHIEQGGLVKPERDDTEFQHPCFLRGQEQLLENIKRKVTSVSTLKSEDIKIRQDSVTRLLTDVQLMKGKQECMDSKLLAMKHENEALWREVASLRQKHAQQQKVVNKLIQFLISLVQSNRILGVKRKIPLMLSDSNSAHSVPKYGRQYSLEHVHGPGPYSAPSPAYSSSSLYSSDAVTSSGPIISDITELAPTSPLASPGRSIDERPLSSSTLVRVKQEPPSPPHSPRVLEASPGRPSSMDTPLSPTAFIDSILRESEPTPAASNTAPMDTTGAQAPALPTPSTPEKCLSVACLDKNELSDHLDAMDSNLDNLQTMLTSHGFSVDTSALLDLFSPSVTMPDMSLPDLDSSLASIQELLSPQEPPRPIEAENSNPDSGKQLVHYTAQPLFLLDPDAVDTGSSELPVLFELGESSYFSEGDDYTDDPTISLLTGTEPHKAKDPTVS

[29] = CCR5-tropic HIV-1 fusion blockers – cell-based, CCR5-tropic Env, dose response (AID 2279); type: functional
[30] = biological target: T5, Microphthalmia-associated transcription factor (Homo sapiens, UniProt O75030); test: reducers of TRPM1 reporter luminescence, concentration series – cell-based, SK-MEL-5, cherry-picked, set 3, MITF inhibitor project, dose response (AID 493073); type: functional;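 also: SK-MEL-5 melanoma cells with luciferase driven by the MITF target TRPM1 promoter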
T5 sequence (O75030 whole entry): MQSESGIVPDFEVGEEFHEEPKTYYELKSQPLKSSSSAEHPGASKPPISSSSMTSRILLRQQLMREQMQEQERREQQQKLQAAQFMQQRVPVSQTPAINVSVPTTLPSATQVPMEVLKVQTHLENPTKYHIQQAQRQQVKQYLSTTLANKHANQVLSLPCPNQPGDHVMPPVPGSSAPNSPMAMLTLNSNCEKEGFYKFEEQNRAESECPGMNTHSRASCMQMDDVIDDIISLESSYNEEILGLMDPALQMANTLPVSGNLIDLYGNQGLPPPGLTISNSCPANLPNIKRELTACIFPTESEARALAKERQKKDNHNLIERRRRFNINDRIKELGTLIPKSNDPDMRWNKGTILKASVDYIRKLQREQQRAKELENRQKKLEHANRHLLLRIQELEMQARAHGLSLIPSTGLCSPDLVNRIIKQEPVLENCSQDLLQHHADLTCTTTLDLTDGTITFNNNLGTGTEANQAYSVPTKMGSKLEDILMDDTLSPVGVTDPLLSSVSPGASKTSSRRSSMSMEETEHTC

Paired box protein Pax-8, sequence (Q06710 whole entry): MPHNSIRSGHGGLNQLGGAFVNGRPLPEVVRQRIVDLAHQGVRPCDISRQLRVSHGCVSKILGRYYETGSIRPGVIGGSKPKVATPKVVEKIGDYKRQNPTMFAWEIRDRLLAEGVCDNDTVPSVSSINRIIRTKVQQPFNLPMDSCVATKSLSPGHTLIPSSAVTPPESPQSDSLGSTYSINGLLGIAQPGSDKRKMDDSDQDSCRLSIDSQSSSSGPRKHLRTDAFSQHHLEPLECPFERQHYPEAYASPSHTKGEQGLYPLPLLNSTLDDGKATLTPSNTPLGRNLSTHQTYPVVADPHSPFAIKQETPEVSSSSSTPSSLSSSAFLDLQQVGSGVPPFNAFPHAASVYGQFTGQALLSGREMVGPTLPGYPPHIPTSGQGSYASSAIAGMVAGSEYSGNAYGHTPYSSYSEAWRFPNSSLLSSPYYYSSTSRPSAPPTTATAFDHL
Cytochrome P450 2C9, sequence (P11712 whole entry): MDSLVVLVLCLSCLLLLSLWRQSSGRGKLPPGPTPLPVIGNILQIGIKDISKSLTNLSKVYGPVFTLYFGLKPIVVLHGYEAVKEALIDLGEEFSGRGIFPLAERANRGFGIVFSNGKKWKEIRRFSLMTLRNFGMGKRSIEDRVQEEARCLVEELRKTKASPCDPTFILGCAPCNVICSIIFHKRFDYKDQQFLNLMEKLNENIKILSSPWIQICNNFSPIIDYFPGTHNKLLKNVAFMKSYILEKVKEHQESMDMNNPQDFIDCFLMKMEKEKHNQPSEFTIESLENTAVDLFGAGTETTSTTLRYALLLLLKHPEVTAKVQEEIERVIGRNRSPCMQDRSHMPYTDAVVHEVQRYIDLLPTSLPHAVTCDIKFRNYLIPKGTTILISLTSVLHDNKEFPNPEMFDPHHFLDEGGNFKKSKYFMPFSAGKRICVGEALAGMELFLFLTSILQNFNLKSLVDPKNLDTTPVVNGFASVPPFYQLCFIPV
Cytochrome P450 2C19, sequence (P33261 whole entry): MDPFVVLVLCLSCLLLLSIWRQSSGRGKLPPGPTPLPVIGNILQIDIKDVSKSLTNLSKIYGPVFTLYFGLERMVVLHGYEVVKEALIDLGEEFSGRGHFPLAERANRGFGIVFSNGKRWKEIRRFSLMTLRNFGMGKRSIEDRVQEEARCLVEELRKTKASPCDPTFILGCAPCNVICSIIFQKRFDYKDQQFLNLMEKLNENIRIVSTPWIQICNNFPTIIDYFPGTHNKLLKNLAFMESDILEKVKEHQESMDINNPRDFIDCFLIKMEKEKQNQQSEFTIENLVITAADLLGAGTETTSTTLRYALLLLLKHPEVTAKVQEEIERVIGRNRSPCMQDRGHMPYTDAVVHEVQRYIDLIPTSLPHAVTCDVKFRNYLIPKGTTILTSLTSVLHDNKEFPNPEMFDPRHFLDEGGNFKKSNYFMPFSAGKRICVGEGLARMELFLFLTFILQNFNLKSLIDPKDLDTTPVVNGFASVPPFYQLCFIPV
Voltage-gated inwardly rectifying potassium channel KCNH2, sequence (Q12809 whole entry): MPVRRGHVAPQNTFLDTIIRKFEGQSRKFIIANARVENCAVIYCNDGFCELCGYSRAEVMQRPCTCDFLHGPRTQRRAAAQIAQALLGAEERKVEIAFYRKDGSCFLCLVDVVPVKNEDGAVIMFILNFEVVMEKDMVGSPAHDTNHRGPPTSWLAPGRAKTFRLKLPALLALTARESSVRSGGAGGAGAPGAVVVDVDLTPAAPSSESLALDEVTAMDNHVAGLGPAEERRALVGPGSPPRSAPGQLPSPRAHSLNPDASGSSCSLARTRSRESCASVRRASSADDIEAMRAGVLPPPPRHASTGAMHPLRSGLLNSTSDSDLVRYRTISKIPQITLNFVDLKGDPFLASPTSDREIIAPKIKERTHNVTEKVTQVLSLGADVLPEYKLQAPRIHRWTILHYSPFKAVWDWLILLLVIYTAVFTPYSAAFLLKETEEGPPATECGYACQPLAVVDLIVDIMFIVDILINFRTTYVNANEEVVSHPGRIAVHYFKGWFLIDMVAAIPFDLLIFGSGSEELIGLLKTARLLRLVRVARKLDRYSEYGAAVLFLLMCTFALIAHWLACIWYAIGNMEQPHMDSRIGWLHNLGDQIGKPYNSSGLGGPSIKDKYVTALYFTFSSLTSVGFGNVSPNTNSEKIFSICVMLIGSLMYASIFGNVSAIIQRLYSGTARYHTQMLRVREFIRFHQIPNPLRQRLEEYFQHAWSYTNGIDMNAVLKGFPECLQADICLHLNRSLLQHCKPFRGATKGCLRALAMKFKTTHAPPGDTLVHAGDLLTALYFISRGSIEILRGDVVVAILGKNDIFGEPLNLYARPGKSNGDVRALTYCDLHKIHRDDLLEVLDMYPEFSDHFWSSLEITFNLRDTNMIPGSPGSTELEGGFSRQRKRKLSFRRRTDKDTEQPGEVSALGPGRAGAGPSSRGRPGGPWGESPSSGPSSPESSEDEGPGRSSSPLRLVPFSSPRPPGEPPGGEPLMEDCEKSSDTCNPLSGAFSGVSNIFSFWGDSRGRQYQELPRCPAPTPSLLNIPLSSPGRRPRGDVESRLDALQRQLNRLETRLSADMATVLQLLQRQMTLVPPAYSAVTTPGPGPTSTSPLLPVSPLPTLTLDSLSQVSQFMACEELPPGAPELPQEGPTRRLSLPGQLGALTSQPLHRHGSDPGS
Luciferin 4-monooxygenase, sequence (P08659 whole entry): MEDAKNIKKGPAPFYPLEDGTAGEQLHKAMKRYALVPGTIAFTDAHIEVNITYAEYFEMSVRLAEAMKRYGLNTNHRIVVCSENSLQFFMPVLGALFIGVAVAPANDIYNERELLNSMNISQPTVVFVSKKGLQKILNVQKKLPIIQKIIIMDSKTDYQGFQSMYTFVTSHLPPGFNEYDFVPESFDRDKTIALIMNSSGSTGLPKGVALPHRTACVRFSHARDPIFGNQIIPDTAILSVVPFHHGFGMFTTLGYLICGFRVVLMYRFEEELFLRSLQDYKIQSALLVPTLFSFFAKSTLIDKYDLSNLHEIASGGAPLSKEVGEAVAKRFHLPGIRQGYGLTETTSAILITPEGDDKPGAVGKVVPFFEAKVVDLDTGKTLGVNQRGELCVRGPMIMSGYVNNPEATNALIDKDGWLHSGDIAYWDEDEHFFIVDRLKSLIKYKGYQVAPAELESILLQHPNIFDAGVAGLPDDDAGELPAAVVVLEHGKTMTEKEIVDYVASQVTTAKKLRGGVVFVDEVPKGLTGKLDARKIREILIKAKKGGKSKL

Cc1cccc(OCc2n[nH]c(-c3ccccn3)n2)c1
active: CC50 [1] 28 µM

O=C(Nc1ccc([N+](=O)[O-])cc1)C(=O)Nc1cccc(C(=O)O)c1
inconclusive: EC50 (BJ [2]) > 75 µM | EC50 (cells [12]) > 12 µM
inactive: EC50 (cells [5]) > 67.5 µM | IC50 [10] > 80 µM | EC50 [19] > 67.5 µM
active: AC50 (Paired box protein Pax-8) 5 µM | EC50 [3] 8.07 µM | AC50 [4] 4.21 µM | IC50 (Jurkat) 1.57 µM | EC50 [6] < 0.1 µM | EC50 [7] 0.115 µM | EC50 (BJ [8]) 16.2 µM | EC50 (BJ [9]) 7.23 µM | EC50 [11] 0.126 µM | AC50 [13] 5.98 µM | EC50 [14] 2.09 µM | EC50 [15] 0.984 µM | AC50 [16] 56.2 µM | EC50 [17] < 0.1 µM | EC50 [18] < 0.1 µM

CCOc1ccc(/C=C/C(=O)c2ccccc2)cc1OC
active: EC50 (cells [20]) 10.2 µM | IC50 [21] > 100 µM
> 350 µM (not active): EC50 (cells [22])

O=C(NC(=S)Nc1nc2c(s1)CSc1ccccc1-2)c1ccccc1
active: EC50 [25] 5.11 µM
> 50 µM (not active): IC50 [23] | IC50 [24]

Cc1cc(C)cc(N2C(=O)CC(Sc3nnc[nH]3)C2=O)c1 (stereo unspecified)
> 50 µM (not active): IC50 [23]

CC(C)(C)c1ccc(OCC(=O)N/N=C/c2cc(Br)ccc2OC(=O)c2ccco2)cc1
inconclusive: AC50 (Cytochrome P450 2C9) | AC50 (Cytochrome P450 2C19) 1.26 µM | AC50 (Cytochrome P450 1A2) 5.01 µM
active: AC50 [26] 2.29 µM | CC50 [1] 15 µM

Cc1nn(-c2ccccc2Cl)c(Cl)c1/C=N/Nc1nc2ccccc2s1
active: EC50 [6] < 0.1 µM | EC50 [7] 0.1 µM | EC50 [11] 0.086 µM | EC50 [28] < 0.16 µM | EC50 (cells [12]) 0.036 µM | EC50 [17] < 0.1 µM | EC50 [18] < 0.1 µM
inactive: IC50 [27] > 80 µM

COc1cc(/C=N/NS(=O)(=O)c2ccc3ccccc3c2)ccc1OCc1ccc(C(=O)O)cc1
active: IC50 [29] 23.6 µM | AC50 [30] 4.78 µM | EC50 [17] 7.05 µM | EC50 [18] 10.5 µM
inconclusive: EC50 [6] 9.11 µM
